Source: ChEMBL document CHEMBL3784920, “Synthesis and Pharmacological Evaluation of Novel Adenine-Hydrogen Sulfide Slow Release Hybrids Designed as Multitarget Cardioprotective Agents” (J Med Chem, 2016)
Activity calls are given as the source filed them. The calls are words filed in the database; no cut-off is given here.

Tests used:
Oryctolagus cuniculus [1] = assay: Toxicity in New Zealand white rabbit myocardial ischemia/reperfusion injury model assessed as heart rate at 1.79 umol/kg, administered as single bolus dose at 20 mins of sustained ischemia (reference value: 276 +/- 9 bpm); format: organism-based; conditions: in vivo
Oryctolagus cuniculus [2] = assay: Toxicity in New Zealand white rabbit myocardial ischemia/reperfusion injury model assessed as mean blood pressure at 1.79 umol/kg, administered as single bolus dose at 180 mins of reperfusion (reference value: 60 +/- 4 mmHg); format: organism-based; conditions: in vivo, iv, 3 h
Oryctolagus cuniculus [3] = assay: Toxicity in New Zealand white rabbit myocardial ischemia/reperfusion injury model assessed as heart rate at 1.79 umol/kg, administered as single bolus dose at 180 mins of reperfusion (reference value: 254 +/- 11 bpm); format: organism-based; conditions: in vivo, 3 h
Oryctolagus cuniculus [4] = assay: Toxicity in New Zealand white rabbit assessed as baseline heart rate at 1.79 umol/kg, administered as single bolus dose (reference value: 269 +/- 10 bpm); format: organism-based; conditions: in vivo
Oryctolagus cuniculus [5] = assay: Toxicity in New Zealand white rabbit assessed as baseline mean blood pressure at 1.79 umol/kg, administered as single bolus dose (reference value: 74 +/- 5 mmHg); format: organism-based; conditions: in vivo
Oryctolagus cuniculus [6] = assay: Toxicity in New Zealand white rabbit myocardial ischemia/reperfusion injury model assessed as mean blood pressure at 1.79 umol/kg, administered as single bolus dose at 20 mins of sustained ischemia (reference value: 64 +/- 5 mmHg); format: organism-based; conditions: in vivo
Oryctolagus cuniculus [7] = assay: Toxicity in New Zealand white rabbit assessed as heart weight at 1.79 umol/kg, administered as single bolus dose (reference value: 7.2 +/- 0.3 g); format: organism-based; conditions: in vivo
[8] = Induction of H2S release in potassium phosphate buffer at pH 7.4 after 15 mins by methylene-blue assay; format: physicochemical; conditions: pH 7.4, 0.25 h
RLF-6 [9] = assay: Induction of H2S release in RLF-6 cells assessed as cGMP accumulation at 250 uM after 5 mins by enzyme immuno assay; format: functional, cell-based; conditions: Rattus norvegicus
RLF-6 [10] = assay: Induction of H2S release in RLF-6 cells assessed as cGMP accumulation after 5 mins by enzyme immuno assay; format: functional, cell-based; conditions: Rattus norvegicus
Oryctolagus cuniculus [11] = assay: (§1) Cardioprotective activity in New Zealand white rabbit myocardial ischemia/reperfusion injury model assessed as reduction in infarct size at 1.79 umol/kg, administered as single bolus dose at 20th min of sustained ischemia by TTC staining in presence of NAHS (reference value: 47.9 +/- 0.7 %); format: functional, Myocardium; design: scale not given: the % may be the effect or the level left
Oryctolagus cuniculus [12] = assay: Toxicity in New Zealand white rabbit assessed as baseline mean blood pressure at 1.79 umol/kg, administered as single bolus dose in presence of NaHS (reference value: 74 +/- 5 mmHg); format: organism-based; conditions: in vivo
Oryctolagus cuniculus [13] = assay: Toxicity in New Zealand white rabbit assessed as heart weight at 1.79 umol/kg, administered as single bolus dose in presence of non selective adenosine receptor inhibitor SPT (reference value: 7.2 +/- 0.3 g); format: organism-based; conditions: in vivo
Oryctolagus cuniculus [14] = assay: Toxicity in New Zealand white rabbit assessed as baseline heart rate at 1.79 umol/kg, administered as single bolus dose in presence of non selective adenosine receptor inhibitor SPT (reference value: 269 +/- 10 bpm); format: organism-based; conditions: in vivo
Oryctolagus cuniculus [15] = assay: Toxicity in New Zealand white rabbit myocardial ischemia/reperfusion injury model assessed as heart rate at 1.79 umol/kg, administered as single bolus dose at 180 mins of reperfusion in presence of non selective adenosine receptor inhibitor SPT (reference value: 254 +/- 11 bpm); format: organism-based; conditions: in vivo, 3 h
Oryctolagus cuniculus [16] = assay: Toxicity in New Zealand white rabbit myocardial ischemia/reperfusion injury model assessed as mean blood pressure at 1.79 umol/kg, administered as single bolus dose at 20 mins of sustained ischemia in presence of NaHS (reference value: 64 +/- 5 mmHg); format: organism-based; conditions: in vivo, iv
[17] = Induction of H2S release in potassium phosphate buffer at 100 uM at pH 7.4 by Amperometric method; format: physicochemical; conditions: pH 7.4, 100 µM
Oryctolagus cuniculus [18] = assay: Toxicity in New Zealand white rabbit assessed as baseline heart rate at 1.79 umol/kg, administered as single bolus dose in presence of NaHS (reference value: 269 +/- 10 bpm); format: organism-based; conditions: in vivo
Oryctolagus cuniculus [19] = assay: Toxicity in New Zealand white rabbit myocardial ischemia/reperfusion injury model assessed as mean blood pressure at 1.79 umol/kg, administered as single bolus dose at 180 mins of reperfusion in presence of NaHS (reference value: 60 +/- 4 mmHg); format: organism-based; conditions: in vivo, iv, 3 h
Oryctolagus cuniculus [20] = assay: Toxicity in New Zealand white rabbit assessed as heart weight at 1.79 umol/kg, administered as single bolus dose in presence of NaHS (reference value: 7.2 +/- 0.3 g); format: organism-based; conditions: in vivo
Oryctolagus cuniculus [21] = assay: Toxicity in New Zealand white rabbit myocardial ischemia/reperfusion injury model assessed as mean blood pressure at 1.79 umol/kg, administered as single bolus dose at 20 mins of sustained ischemia in presence of non selective adenosine receptor inhibitor SPT (reference value: 64 +/- 5 mmHg); format: organism-based; conditions: in vivo, iv
Oryctolagus cuniculus [22] = assay: Toxicity in New Zealand white rabbit myocardial ischemia/reperfusion injury model assessed as heart rate at 1.79 umol/kg, administered as single bolus dose at 180 mins of reperfusion in presence of NaHS (reference value: 254 +/- 11 bpm); format: organism-based; conditions: in vivo, iv, 3 h
Oryctolagus cuniculus [23] = assay: Toxicity in New Zealand white rabbit myocardial ischemia/reperfusion injury model assessed as mean blood pressure at 1.79 umol/kg, administered as single bolus dose at 180 mins of reperfusion in presence of SPT (reference value: 60 +/- 4 mmHg); format: organism-based; conditions: in vivo, 3 h
Oryctolagus cuniculus [24] = assay: as §1, with “20 mins before” for “20th min of”, “non selective adenosine receptor inhibitor SPT” for “NAHS”; format: functional, Myocardium; design: scale not given: the % may be the effect or the level left
Oryctolagus cuniculus [25] = assay: Cardioprotective activity in New Zealand white rabbit myocardial ischemia/reperfusion injury model assessed as reduction in infarct size at 1.79 umol/kg, administered as single bolus dose at 20th min of sustained ischemia by TTC staining (reference value: 47.9 +/- 0.7 %); format: functional, Myocardium; design: scale not given: the % may be the effect or the level left
Oryctolagus cuniculus [26] = assay: Toxicity in New Zealand white rabbit myocardial ischemia/reperfusion injury model assessed as heart rate at 1.79 umol/kg, administered as single bolus dose at 20 mins of sustained ischemia in presence of non selective adenosine receptor inhibitor SPT (reference value: 276 +/- 9 bpm); format: organism-based; conditions: in vivo
Oryctolagus cuniculus [27] = assay: Toxicity in New Zealand white rabbit assessed as baseline mean blood pressure at 1.79 umol/kg, administered as single bolus dose in presence of SPT (reference value: 74 +/- 5 mmHg); format: organism-based; conditions: in vivo
Oryctolagus cuniculus [28] = assay: Toxicity in New Zealand white rabbit myocardial ischemia/reperfusion injury model assessed as heart rate at 1.79 umol/kg, administered as single bolus dose at 20 mins of sustained ischemia in presence of NaHS (reference value: 276 +/- 9 bpm); format: organism-based; conditions: in vivo

SMILES	Activity (Oryctolagus cuniculus [1])	Activity (Oryctolagus cuniculus [2])	Activity (Oryctolagus cuniculus [3])	Activity (Oryctolagus cuniculus [4])	Activity (Oryctolagus cuniculus [5])	Activity (Oryctolagus cuniculus [6])	Activity (Oryctolagus cuniculus [7])	Activity (RLF-6 [10])	Activity (Oryctolagus cuniculus [25])	other results
[Na+].[SH-] [SODIUM HYDROSULFIDE]	268 bpm	68 mmHg	262 bpm	273 bpm	81 mmHg	76 mmHg	7.1 g	–	–	–
CC1(C)O[C@@H]2[C@H](O1)[C@@H](COc1ccc(C(N)=S)cc1)O[C@H]2n1cnc2c(N)ncnc21	–	–	–	–	–	–	–	–	–	Activity [8]: Dose-dependent effect; Activity (RLF-6 [9]): Active
Nc1ncnc2c1ncn2[C@@H]1O[C@H](CO)[C@@H](O)[C@H]1O	–	–	–	–	–	–	–	inactive	–	–
NC(=O)c1ccc(OCCCCn2cnc3c(N)ncnc32)cc1	258 bpm	71 mmHg	262 bpm	260 bpm	77 mmHg	75 mmHg	7.3 g	–	26.6%	Activity (Oryctolagus cuniculus [11]): 22.3%; Activity (Oryctolagus cuniculus [12]): 79 mmHg; Activity (Oryctolagus cuniculus [13]): 7.1 g; Activity (Oryctolagus cuniculus [14]): 278 bpm; Activity (Oryctolagus cuniculus [15]): 268 bpm; Activity (Oryctolagus cuniculus [16]): 65 mmHg; Activity [17]: Not Active; Activity (Oryctolagus cuniculus [18]): 268 bpm; Activity (Oryctolagus cuniculus [19]): 67 mmHg; Activity (Oryctolagus cuniculus [20]): 7.4 g; Activity (Oryctolagus cuniculus [21]): 76 mmHg; Activity (Oryctolagus cuniculus [22]): 252 bpm; Activity (Oryctolagus cuniculus [23]): 72 mmHg; Activity (Oryctolagus cuniculus [24]): 41.8%; Activity (Oryctolagus cuniculus [26]): 259 bpm; Activity (Oryctolagus cuniculus [27]): 82 mmHg; Activity (Oryctolagus cuniculus [28]): 272 bpm
Nc1ncnc2c1ncn2CCCCO	266 bpm	90 mmHg	270 bpm	275 bpm	95 mmHg	88 mmHg	7.3 g	inactive	32.4%	–
